Where a name gives a salt, the structure may show the parent alone.
What was measured:
human FLAP = human FLAP (Homo sapiens (Human), UniProt P20292); experiment: FLAP binding assay (HTRF); settings: human FLAP-containing membranes, HTRF format; average of two assay plates, duplicates; read-out: FLAP Binding wild type HTRF Ki
In short: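 Read-out is the HTRF ratio. Each reported figure averages two assay plates on which samples were tested in duplicate.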

[1] = tested on: leukotriene pathway in human whole blood (LTB4 levels); experiment: Human whole blood assay (LTB4); format: cell-based; settings: human whole blood diluted 1:1 in RPMI, stimulated with calcium ionophore A23187; single replicate
In short: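 Heparinised human whole blood, diluted 1:1 in RPMI, was pre-incubated with test compounds for 15 min at 37° Celsius, then stimulated with A23187 (7 μg/mL) for 30 min at 37° Celsius. Plasma LTB4 was measured by immunoassay kit; IC50 from 4-parameter fit; single replicate, at least one healthy donor.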

Sequence of human FLAP (P20292 whole entry): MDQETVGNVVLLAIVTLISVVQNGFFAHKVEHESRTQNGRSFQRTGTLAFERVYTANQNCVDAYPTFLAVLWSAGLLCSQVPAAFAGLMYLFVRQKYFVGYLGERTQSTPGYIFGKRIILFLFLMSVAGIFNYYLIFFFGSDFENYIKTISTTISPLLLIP

Row | Structure (SMILES) | Ki (human FLAP) [µM] | IC50 [1] [µM]
1 | COC(=O)c1ccc(Oc2c(C3CCC3)ccc(-c3cnc(N)cn3)c2F)nc1 [Example 107, Methyl 6-[3-(5-aminopyrazin-2-yl)-6-cyclobutyl-2-fluorophenoxy]pyridine-3-carboxylate] | 0.0069 | 0.177
2 | N#Cc1ccc(Oc2c(C3CCC3)ccc(-c3cnc(N)cn3)c2F)cn1 [Example 108, 5-[3-(5-Aminopyrazin-2-yl)-6-cyclobutyl-2-fluorophenoxy]pyridine-2-carbonitrile] | 0.0246 | 1.31
3 | N#Cc1cc(Oc2c(C3CCC3)ccc(-c3cnc(N)cn3)c2F)ccn1 [Example 109, 4-[3-(5-Aminopyrazin-2-yl)-6-cyclobutyl-2-fluorophenoxy]pyridine-2-carbonitrile] | 0.0089 | 0.307
4 | N#Cc1cccnc1Oc1c(C2CCC2)ccc(-c2cnc(N)cn2)c1F [Example 110, 2-[3-(5-Aminopyrazin-2-yl)-6-cyclobutyl-2-fluorophenoxy]pyridine-3-carbonitrile] | 0.0024 | 0.0522
5 | N#Cc1cccc(Oc2c(C3CCC3)ccc(-c3cnc(N)cn3)c2F)n1 [Example 111, 6-[3-(5-Aminopyrazin-2-yl)-6-cyclobutyl-2-fluorophenoxy]pyridine-2-carbonitrile] | 0.0019 | 0.0654
6 | N#Cc1ncccc1Oc1c(C2CCC2)ccc(-c2cnc(N)cn2)c1F [Example 112, 3-[3-(5-Aminopyrazin-2-yl)-6-cyclobutyl-2-fluorophenoxy]pyridine-2-carbonitrile] | 0.0148 | 0.181
7 | Nc1cnc(-c2ccc(C3CCC3)c(Oc3ccc(C(F)(F)F)cn3)c2F)cn1 [Example 113, 5-(4-Cyclobutyl-2-fluoro-3-{[5-(trifluoromethyl)pyridin-2-yl]oxy}phenyl)pyrazin-2-amine] | 0.027 | 0.608
8 | Nc1cnc(-c2ccc(C3CCC3)c(Oc3ccc(S(F)(F)(F)(F)F)cc3)c2F)cn1 [Example 115, 5-{4-Cyclobutyl-2-fluoro-3-[4-(pentafluoro-lambda~6~- sulfanyl)phenoxy]phenyl}pyrazin-2-amine] | 0.297 | 1.11
9 | Nc1cnc(-c2ccc(C3CCC3)c(Oc3ncccn3)c2F)cn1 [Example 118, 5-[4-Cyclobutyl-2-fluoro-3-(pyrimidin-2-yloxy)phenyl]pyrazin-2-amine] | 0.0105 | 0.0657
10 | Nc1cnc(-c2ccc(C3CCC3)c(Oc3nccc(N)n3)c2F)cn1 [Example 119, 2-[3-(5-Aminopyrazin-2-yl)-6-cyclobutyl-2-fluorophenoxy]pyrimidin-4-amine] | 0.006 | 0.0263
11 | Nc1cnc(-c2ccc(C3CCC3)c(Oc3ncccc3Cl)c2F)cn1 [Example 122, 5-{3-[(3-Chloropyridin-2-yl)oxy]-4-cyclobutyl-2-fluorophenyl}pyrazin-2-amine] | 0.004 | 0.46
12 | CS(=O)(=O)c1ccc(Oc2c(C3CCC3)ccc(-c3cnc(N)cn3)c2F)c(Cl)c1 [Example 123, 5-{3-[2-Chloro-4-(methylsulfonyl)phenoxy]-4-cyclobutyl-2-fluorophenyl}pyrazin-2-amine] | 0.007 | 4.48
13 | Nc1cnc(-c2ccc(C3CCC3)c(Oc3ccnc(C(F)(F)F)n3)c2F)cn1 [Example 124, 5-(4-Cyclobutyl-2-fluoro-3-{[2-(trifluoromethyl)pyrimidin-4-yl]oxy}phenyl)pyrazin-2-amine] | 0.003 | 0.119
14 | Cc1cc(Oc2c(C3CCC3)ccc(-c3cnc(N)cn3)c2F)ccc1S(C)(=O)=O [Example 126, 5-{4-Cyclobutyl-2-fluoro-3-[3-methyl-4-(methylsulfonyl)phenoxy]phenyl}pyrazin-2-amine] | 0.0107 | 0.406
15 | COc1cccnc1Oc1c(C2CCC2)ccc(-c2cnc(N)cn2)c1F [Example 129, 5-{4-Cyclobutyl-2-fluoro-3-[(3-methoxypyridin-2-yl)oxy]phenyl}pyrazin-2-amine] | 0.119 | 0.281
16 | Nc1cnc(-c2ccc(C3CCC3)c(Oc3ccnc(N)n3)c2F)cn1 [Example 130, 4-[3-(5-Aminopyrazin-2-yl)-6-cyclobutyl-2-fluorophenoxy]pyrimidin-2-amine] | 0.0037 | 0.0841
17 | Nc1cnc(-c2ccc(C3CCC3)c(Oc3nccc(C(F)(F)F)n3)c2F)cn1 [Example 131, 5-(4-Cyclobutyl-2-fluoro-3-{[4-(trifluoromethyl)pyrimidin-2-yl]oxy}phenyl)pyrazin-2-amine] | 0.0056 | 0.0679
18 | CS(=O)(=O)c1ccc(Oc2c(C3CCC3)ccc(-c3cnc(N)cn3)c2F)c(C#N)c1 [Example 132, 2-[3-(5-Aminopyrazin-2-yl)-6-cyclobutyl-2-fluorophenoxy]-5-(methylsulfonyl)benzonitrile] | 0.017 | 0.133

Row | Structure (SMILES) | Ki (human FLAP) [µM] | IC50 [1] [µM]
19 | CS(=O)(=O)c1ccc(Oc2c(C3CCC3)ccc(-c3cnc(N)cn3)c2F)cc1C(F)(F)F [Example 133, 5-{4-Cyclobutyl-2-fluoro-3-[4-(methylsulfonyl)-3-(trifluoro-methyl)phenoxy]phenyl}pyrazin-2-amine] | 0.0102 | 0.0796
20 | Cc1nccc(Oc2c(C3CCC3)ccc(-c3cnc(N)cn3)c2F)n1 [Example 134, 5-{4-Cyclobutyl-2-fluoro-3-[(2-methylpyrimidin-4-yl)oxy]phenyl}pyrazin-2-amine] | 0.0062 | 0.0397
21 | Nc1cnc(-c2ccc(C3CCC3)c(Oc3cc(N)ncn3)c2F)cn1 [Example 136, 6-[3-(5-Aminopyrazin-2-yl)-6-cyclobutyl-2-fluorophenoxy]pyrimidin-4-amine] | 0.0035 | 0.0459
22 | Nc1cnc(-c2ccc(C3CCC3)c(Oc3ccnc(Cl)n3)c2F)cn1 [Example 137, 5-{3-[(2-Chloropyrimidin-4-yl)oxy]-4-cyclobutyl-2-fluorophenyl}pyrazin-2-amine] | 0.0037 | 0.051
23 | Nc1cnc(-c2ccc(C3CCC3)c(Oc3cc(N4CCC4)ncn3)c2F)cn1 [Example 138, 5-{3-[(6-Azetidin-1-ylpyrimidin-4-yl)oxy]-4-cyclobutyl-2-fluorophenyl}pyrazin-2-amine trifluoroacetate salt] | 0.0055 | 0.0703
24 | CN(C)c1cc(Oc2c(C3CCC3)ccc(-c3cnc(N)cn3)c2F)nc(C(F)(F)F)n1 [Example 139, 6-[3-(5-Aminopyrazin-2-yl)-6-cyclobutyl-2-fluorophenoxy]-N,N-dimethyl-2-(trifluoromethyl)pyrimidin-4-amine] | 0.0039 | 0.0485
25 | Cc1nc(N)cc(Oc2c(C3CCC3)ccc(-c3cnc(N)cn3)c2F)n1 [Example 140, 6-[3-(5-Aminopyrazin-2-yl)-6-cyclobutyl-2-fluorophenoxy]-2-methylpyrimidin-4-amine trifluoroacetate salt] | 0.0013 | 0.0117
26 | Nc1cnc(-c2ccc(C3CCC3)c(Oc3cc(C4CC4)ncn3)c2F)cn1 [Example 141, 5-{4-Cyclobutyl-3-[(6-cyclopropylpyrimidin-4-yl)oxy]-2-fluorophenyl}pyrazin-2-amine] | 0.005 | 0.0586
27 | COCc1cc(Oc2c(C3CCC3)ccc(-c3cnc(N)cn3)c2F)nc(N)n1 [Example 142, 4-[3-(5-Aminopyrazin-2-yl)-6-cyclobutyl-2-fluorophenoxy]-6-(methoxymethyl)pyrimidin-2-amine] | 0.0017 | 0.0185
28 | Nc1cnc(-c2ccc(C3CCC3)c(Oc3cc(Cl)nc(N)n3)c2F)cn1 [Example 143, 4-[3-(5-Aminopyrazin-2-yl)-6-cyclobutyl-2-fluorophenoxy]-6-chloropyrimidin-2-amine] | 0.0029 | 0.0377
29 | Nc1cnc(-c2ccc(C3CCC3)c(Oc3ccnc(-c4ccccc4)n3)c2F)cn1 [Example 144, 5-{4-Cyclobutyl-2-fluoro-3-[(2-phenylpyrimidin-4-yl)oxy]phenyl}pyrazin-2-amine] | 0.0011 | 0.0223
30 | Nc1cnc(-c2ccc(C3CCC3)c(Oc3cc(-c4ccccc4)ncn3)c2F)cn1 [Example 145, 5-{4-Cyclobutyl-2-fluoro-3-[(6-phenylpyrimidin-4-yl)oxy]phenyl}pyrazin-2-amine] | 0.0054 | 0.177
31 | Nc1cnc(-c2ccc(C3CCC3)c(Oc3cc(N)nc(Cc4ccccc4)n3)c2F)cn1 [Example 146, 6-[3-(5-Aminopyrazin-2-yl)-6-cyclobutyl-2-fluorophenoxy]-2-benzylpyrimidin-4-amine] | 0.0004 | 0.0045
32 | CC(C)c1cc(Oc2c(C3CCC3)ccc(-c3cnc(N)cn3)c2F)ncn1 [Example 147, 5-(4-Cyclobutyl-2-fluoro-3-{[6-(1-methylethyl)pyrimidin-4-yl]oxy}phenyl)pyrazin-2-amine] | 0.0064 | 0.185
33 | CC(C)(C)OC(=O)NCCNc1ccnc(Oc2c(C3CCC3)ccc(-c3cnc(N)cn3)c2F)n1 [Example 149, tert-Butyl [2-({2-[3-(5-aminopyrazin-2-yl)-6-cyclobutyl-2-fluorophenoxy]pyrimidin-4-yl}amino)ethyl]carbamate] | 0.0013 | 0.112
34 | NCCNc1nccc(Oc2c(C3CCC3)ccc(-c3cnc(N)cn3)c2F)n1 [Example 150, N-{4-[3-(5-Aminopyrazin-2-yl)-6-cyclobutyl-2-fluorophenoxy]pyrimidin-2-yl}ethane-1,2-diamine] | 0.176 | 3.59
35 | COC(=O)c1ccnc(Oc2c(C3CCC3)ccc(-c3cnc(N)cn3)c2F)n1 [Example 151, methyl 2-[3-(5-aminopyrazin-2-yl)-6-cyclobutyl-2-fluorophenoxy]pyrimidine-4-carboxylate] | 0.0089 | 0.0754

— US9073876B2, “Flap modulators” (JANSSEN PHARMACEUTICA NV, priority 2013, dated 2015)
